Results on 5 molecules are retold here after patent US8779161B2, “Asenapine maleate” (Dr. Reddy's Laboratories Limited, priority 2010, dated 2014).

Each structure is given as a SMILES string.

Series [1] is described as follows: Particle size distribution d(10), d(50), d(90). Format: physicochemical. An excerpt:
For example, particle size distributions of asenapine maleate particles may be measured using microscopy or light scattering equipment, such as, for example, a Malvern Master Size 2000 from Malvern Instruments Limited, Malvern, Worcestershire, United Kingdom. The particle size distributions can be expressed, for example, in terms of d(90), d(50), and d(10) values, where the values (e.g., expressed in μm) are the maximum sizes for 90, 50, and 10 percent of the particles, respectively.
Polymorphs are different solids sharing the same molecular formula, yet having distinct physical properties when compared to other polymorphs of the same formula. As used throughout the disclosure, the D(10), D(50), and D(90) values are useful ways for indicating a particle size distribution. D(90) refers to at least 90 volume percent of the particles having a size smaller than the said value. Likewise, D(10) refers to 10 volume percent of the particles having a size smaller than the said value. D(50) refers to 50 volume percent of the particles having a size smaller than the said value. Methods for determining D(10), D(50), and D(90) include laser diffraction, such as using equipment from Malvern Instruments Ltd. of Malvern, Worcestershire, United Kingdom. HPLC is High Pressure Liquid Chromatography.

A short description of series [2]: Micronization of asenapine maleate monoclinic form: polymorphic form by PXRD after micronizing. Type of series: physicochemical. Particulars: Midas Micronizer 50, nitrogen carrier gas, 4-6 Kg/cm^2; compared with reference pattern of monoclinic polymorph.
Protocol: All PXRD data reported herein are obtained using a Bruker AXS D8 Advance Powder X-ray Diffractometer or a PANalytical X-ray Diffractometer, using copper Kα radiation. Generally, a diffraction angle (2θ) in powder X-ray diffractometry may have permissible variation in the range of ±0.2°. Although the intensities of peaks in the x-ray powder diffraction patterns of different batches of a compound may vary slightly, the peaks and the peak locations are characteristic for a specific polymorphic form. The relative intensities of the PXRD peaks can vary depending on the sample preparation technique, crystal size distribution, various filters used, the sample mounting procedure, and the particular instrument employed. Moreover, instrument variation and other factors can affect the 2-theta values. Therefore, the term “substantially” in the context of PXRD is meant to encompass that peak assignments can vary by plus or minus about 0.2° 2-theta.
For series [3] the following is noted: starting with the monoclinic form; WO 2006/106135 A1, Examples 9 and 10 therein; cited from earlier work.
Setting [4] is: after micronization, Midas Micronizer 50, nitrogen 4-6 Kg/cm^2.
Setting [5] is: before micronization (as isolated).

`CN1C[C@H]2c3ccccc3Oc3ccc(Cl)cc3[C@@H]2C1.O=C(O)/C=C\C(=O)O` [Example 11, Asenapine Maleate Monoclinic Form]: in series [1] (setting [4]), the “particle size distribution d(10)” value was 0.994 μm, the “particle size distribution d(50)” value is given as 5.516 μm and the “particle size distribution d(90)” value came to 12.715 μm. Also, in series [1] (setting [5]), the “particle size distribution d(10)” value amounted to 5.671 μm, the “particle size distribution d(50)” value worked out at 24.077 μm and the “particle size distribution d(90)” value turned out to be 58.716 μm.
With `CN1C[C@H]2c3ccccc3Oc3ccc(Cl)cc3[C@@H]2C1.O=C(O)/C=C\C(=O)O` [Example 13, Asenapine Maleate], the “PXRD Pattern after Micronizing” value in series [2] was “complies with reference pattern of monoclinic polymorph”. In series [1] (setting [4]), the “particle size distribution d(10)” value is 0.887 μm, the “particle size distribution d(50)” value is given as 4.632 μm and the “particle size distribution d(90)” value was found to be 10.678 μm. In series [1] (setting [5]), the “particle size distribution d(10)” value was 6.269 μm, the “particle size distribution d(50)” value came to 35.229 μm and the “particle size distribution d(90)” value turned out to be 80.698 μm.
Consider `CN1C[C@H]2c3ccccc3Oc3ccc(Cl)cc3[C@@H]2C1.O=C(O)/C=C\C(=O)O` [Example 15, Asenapine Maleate Monoclinic Form], for which, in series [1] (setting [5]), the “particle size distribution d(10)” value stood at 4.38 μm, the “particle size distribution d(50)” value was 14.42 μm and the “particle size distribution d(90)” value was 33.11 μm.
As to `CN1C[C@H]2c3ccccc3Oc3ccc(Cl)cc3[C@@H]2C1.O=C(O)/C=C\C(=O)O` [Example 26, Asenapine Maleate], the “particle size distribution d(90)” value in series [1] (setting [5]) was determined as 88 μm.
With `CN1C[C@H]2c3ccccc3Oc3ccc(Cl)cc3[C@@H]2C1.O=C(O)/C=C\C(=O)O` [form H, asenapine maleate], the “polymorphic form obtained after micronization” value in series [3] is “Either the monoclinic form, or the orthorhombic form or a mixture of polymorphs was obtained”.
